The results in this text go back to a melting point compilation (Tetko et al.; mined from patent text by program, amines drawn as free bases though some values may be those of a salt).

By melting point is commonly meant the temperature of the solid-liquid transition.

The structures appear in SMILES notation. Where only a bound is given, the exact number is not on record here.

`CC(C)(C)OC(=O)NCCS(=O)(=O)Nc1ccc2c(c1)C(=O)Nc1cccnc1N2`: the melting point fell in the range of 195 to 198 °C.
On to `CC(=O)C(CCS(C)(=O)=O)(CCS(C)(=O)=O)C(C)=O`, for which the melting point was determined as 162 °C.
Consider `CCCn1cc2c(C3C(=O)Nc4ccc(Br)cc43)nc(Cl)nc2n1` (stereo not drawn), for which the melting point is greater than 300 °C.
`CCCCOC(=O)C=CCOc1ccc(F)c(C(N)=O)c1F`: the melting point is less than 40 °C.
Consider `CCc1c(Oc2ccc(C(F)(F)F)cc2[N+](=O)[O-])n[nH]c1C`, for which the melting point was 92 to 93 °C.
Take `CN(C1CCNCC1)S(=O)(=O)c1ccc(Nc2nccc(-c3ccc(F)cc3)n2)cc1`: the melting point stood at 116 °C.
To `O=C1CNC(=O)C(Cc2cccc(NCc3ccccc3)c2)N1` (stereo not drawn) belongs 160 to 161 °C.
On to `CC1=Cc2cc(Br)ccc2S1(=O)=O`, for which the melting point was 149 to 151 °C.
Turning to `Cc1cc(O)n2nc(CS)nc2n1`, the melting point was determined as 215 °C.
In the case of `c1ccc(SCC2=NCCN2)cc1`, the melting point fell in the range of 84 to 85.6 °C.
`CCC1(CCO)OCCc2c1[nH]c1c(C)cccc21` (stereo not drawn) displayed a melting point of 68 °C.
Compound `Cc1ccc2sc3cc(C(=O)O)ccc3c2c1` registered a melting point of 290 to 291 °C.
Turning to `CCCC(=O)c1cc(C(=O)C(=O)OC(=O)C(=O)c2cc(C(=O)CCC)c(C)cc2NCC)c(NCC)cc1C`, the melting point lay in the range of 141 to 143 °C.
Take `Cc1[nH]c2ccccc2c1CCCN1CCC(C(=O)c2ccc(F)cc2)CC1`: the melting point was in the range of 135 to 137 °C.
To `O=C(O)COc1cccc2c1CCc1sc(NCCC(c3ccccc3)c3ccccc3)nc1-2` belongs 240 to 243 °C; to `CSc1nccc(-c2ssc(=S)c2C)n1`, 170 to 172 °C; to `COc1ncccc1OCC(O)CNC(C)C` (stereo not drawn), 50 to 65 °C.
In turn, `CC(=O)N1CC(CCN2CC=C(c3c[nH]c4cc(Cl)ccc34)CC2)c2cc(C)ccc21` (stereo not drawn) came in with a melting point of 179 to 181 °C.
With `CCOC(=O)c1ccccc1Nc1ccccc1O`, the melting point fell in the range of 105 to 106 °C.
In the case of `Cc1ccc([C@H](CC(=O)O)NC(=O)Nc2c(O)c3ccccc3n(Cc3ccccc3Cl)c2=O)cc1` it was 134 to 136 °C.
To `CCc1cccc2c1N(CC(=O)N1CC3CCC(CC3)C1)C(=O)C(NC(=O)Nc1cccc(C)c1)N=C2c1ccccc1F` (stereo not drawn) belongs 163 to 168 °C; to `O=C(O)c1ccc(Cn2ccc3cc(OCc4ccc5ccccc5n4)ccc32)cc1`, 212 to 216 °C; to `CC(C)C(c1cncnc1C#N)N(C)C(=O)Cc1ccccc1` (stereo not drawn), 80 to 81 °C.
On to `COC(CNC(=O)c1ccc(C(=O)N2CCN(c3ncccc3NC(C)C)CC2)nc1)OC`, for which the melting point is 167 to 169 °C.
Consider `O=C(NCc1ccc(Cl)cc1)c1cnc2cc(-n3cccc3)ccc2c1O`, for which the melting point was greater than 200 °C.
Take `COc1ccc(-c2n[nH]c3ccsc23)cc1`: the melting point was in the range of 143 to 144 °C.
With `Cc1oc2c(NC(=O)c3c(Cl)cccc3Cl)cc(NC(N)=O)cc2c1C`, the melting point was greater than 250 °C.
`CCCN(CCC)CCOc1ccc2[nH]c(C)c(C(=O)OCc3ccccc3)c2c1` yielded a melting point of 123 to 125 °C.
In turn, `Cc1nccnc1C(=O)Nc1ccc(C(C(F)(F)F)C(F)(F)F)c(CC(C)C)c1` had a melting point of 133 to 134 °C.
In the case of `O=C(O)CCCCCOc1cccc(OCc2ccccc2)c1`, the melting point lay within 72 to 73 °C.
As to `O=S(=O)(c1ccccc1)C1C2CCC(C2)C1Br` (stereo not drawn), the melting point lay in the range of 108 to 110 °C.
In turn, `CCCCN=C(CS(C)=O)c1cc2ccccc2cc1O` (stereo not drawn) gave a melting point of 162 to 164 °C.
In the case of `Brc1ccc(OC2CN(C(c3ccccc3)c3ccccc3)C2)cc1` it was 116 to 117 °C; in that of `CN1C=NN(c2cccc(N)c2)N1`, 93 to 95 °C; in that of `O=C1COC(=O)C1=Cc1cccc(C(F)(F)F)c1`, 108 to 109 °C.
Turning to `O=c1n(CCCF)nnn1-c1cc(Oc2ccc([N+](=O)[O-])cc2)c(Cl)cc1F`, the melting point was 109 to 110 °C.
To `CCCC(=O)Cc1ccc(C(=O)Nc2ccc3cc(CN4CCCCCC4)cnc3c2C)cc1` belongs 136 to 137 °C; to `COC(=O)[C@H]1NC(=O)[C@H]1N` (relative stereo), 59 to 61 °C; to `COc1cc(OCc2ccccn2)ccc1C=O`, 93.6 °C.
Turning to `CS(=O)(=O)c1ccc(-c2ccccc2-c2ccc(Cl)cc2)cc1`, the melting point was 180 to 181 °C.
For the compound `CCOC(=O)C1=CC(C)C2=c3c1cccc3=C1N=NC=C12` (stereo not drawn), the melting point lay within 107 to 109 °C.
For `COc1ccc2c(c1)C(C)(C)C(CO)O2` (stereo not drawn), the melting point is 65 to 67 °C.
Consider `COc1cc(F)ccc1C(=O)NC(C)c1nc(-c2ccncn2)cc(=O)n1C` (racemic), for which the melting point lay within 201 to 203 °C.
`O=S(=O)(CCO)c1ccccc1` yielded a melting point of 87 to 89 °C.
In the case of `CC(C)(C)Nc1c(Nc2cnc3ccccc3c2)c(=O)c1=O` it was 257 to 260 °C.
As to `COc1ccccc1COC(=O)c1ncn2c1[C@@H]1CCCN1C(=O)c1c(Cl)cccc1-2`, the melting point was in the range of 178 to 179 °C.
To `O=C(/C=C/c1ccccc1)N1CCCC1` belongs 100 °C; to `O=[N+]([O-])c1ccc(CN2CCN(c3ccc(F)cc3)CC2)cc1`, 139 to 141 °C; to `O=S1(=O)NC2CCCN2c2c(F)cc(O)cc21` (stereo not drawn), 167 to 169 °C.
Compound `COc1ccc(S(=O)(=O)c2c(C(C)C)n(C)c3ccccc23)cc1` had a melting point of 125 °C.
In the case of `CC(=O)c1c(C)oc(C)c1C(C)=O` it was 75 to 77 °C.
Regarding `CCOC(=O)c1oc2ccc(OC)cc2c1OCC`, the melting point lay in the range of 50 to 51 °C.
`CN1CCN(c2cccc3c2C[C@H](NC(=O)c2ccc(C#N)cc2)CC3)CC1` returned a melting point of 184 to 186 °C.
Compound `S=C(NCc1ccccc1)Nc1ccc(NC(=S)NCc2ccccc2)cc1` showed a melting point of 198 °C.
`Cc1ccc(OCC(=O)O)c(I)n1` gave a melting point of 170 to 172 °C.
As to `CCCc1nc(N2CCOCC2)c2cscc2n1`, the melting point was 102 to 105 °C.
`FC(F)(F)c1cc(-c2ccc(Cl)cc2)[nH]c1C(F)(F)F` had a melting point of 72 to 73 °C.
The compound `Cc1cc(-c2ccc(Cl)cc2)nc2c(C#Cc3ccc(C(C)(C)O)cc3)cnn12` had a melting point of 112 to 115 °C.
`CCCCc1nc2c(N)nc3cccnc3c2n1CCNC(=O)C1CCC(=O)O1` (stereo not drawn) had a melting point of 153 to 154 °C.
For `CCOC(=O)Cn1c(=O)c2cc(Cc3ncc[nH]3)ccc2n(Cc2ccc(Cl)c(Cl)c2)c1=O`, the melting point fell in the range of 201 to 202 °C.
With `CCCc1c(OCCCCCOc2c(C)c(C)c3c(c2C)CC[C@](C)(C(=O)O)O3)ccc(C(C)=O)c1O`, the melting point is 92.5 to 95 °C.
In the case of `OC(c1ccc(Cl)cc1)(c1ccc(Cl)cc1)c1nccn1Cc1ccc(Cl)cc1` it was 171 to 173 °C; in that of `O=C(O)c1ccccc1C=Cc1ccc(-c2cc3ccc4ccccc4c3o2)cc1`, 210 to 211 °C; in that of `CC(C)(C)OC(=O)NC(C)(C)c1ccc(-c2nc(Nc3ccc(CCn4ccnc4)cc3)ncc2C#N)cc1`, 124 °C.
In the case of `Cc1nc(N)sc1S(=O)(=O)N1CCN(C)CC1` it was 188 °C; in that of `CC(=O)/C=C(\C)c1ccc(-c2ccccc2)c(F)c1`, 103 °C.
`COc1ccc(Nc2ccccc2C(=O)N2CCCCC2)cc1`: the melting point was 106 to 108 °C.
`CCC(CC)n1cnc2c(Oc3c(C)cc(C)cc3C)nc(C)cc21` displayed a melting point of 127 to 131 °C.
As to `Cc1nc2c(O[Si](C)(C)C(C)(C)C(C)C)c(CC[C@@H](O)c3ccccc3)c(C(=O)N(C)C)cn2c1C`, the melting point was 56 to 58 °C.
The compound `O=C(Nc1cccc(-c2nnn[nH]2)c1)NC1N=C(c2ccccc2F)c2cccc(Cl)c2N(CC(=O)N2CC3CCC(CC3)C2)C1=O` (stereo not drawn) came in with a melting point of 172 to 180 °C.
To `COc1cccc2c1CC(C(=O)NCCOc1ccc(CC(=O)O)cc1)N2S(=O)(=O)c1ccc(-c2cccc(C(F)(F)F)c2)cc1` (stereo not drawn) belongs 96 °C.
In the case of `COC(=O)NC1=NC(c2ccc(F)cc2)CCN1` (stereo not drawn), the melting point lay in the range of 211 to 212 °C.
The compound `CCCCCCCCCCCCCCCCCCOc1ccc(OCCCOc2ccc(OCc3ccccc3)cc2)c(C(=O)N(CC(=O)O)CC(=O)O)c1` showed a melting point of 70 to 74 °C.
For the compound `CC(=NC(=Nc1ccccc1)N1CCOCC1)NCCO`, the melting point lay within 132 to 134 °C.
Take `O=C1Nc2ccccc2N2C(=O)OCC12` (stereo not drawn): the melting point is 230 to 231 °C.
As to `Cn1cccc1C(=O)C(C#N)C(=O)Nc1ccc(F)cc1` (stereo not drawn), the melting point lay in the range of 198 to 199 °C.
Take `CON=C(C(=O)OC)c1ccccc1C#CC(=O)c1ccccc1`: the melting point fell in the range of 89 to 94 °C.
Turning to `COC(=O)c1cc(-c2ccc(OC)c(F)c2)nn(CC=Cc2ccc(Cl)cc2)c1=O`, the melting point lay within 131 to 132 °C.
The compound `CCCn1c(COCC)nc2c(N)nc3ccc(OC4CCN(C(=O)NC(C)C)CC4)cc3c21` displayed a melting point of 236 to 239 °C.
Compound `CCOc1cc(C(CC(C)=O)N2C(=O)c3cccc(NC(C)=O)c3C2=O)ccc1OC` (stereo not drawn) yielded a melting point of 128 to 129 °C.
Compound `CON1CCC2(CC1)C(O)=C(c1c(C)cc(C)cc1C)C(=O)N2CC1CC1` registered a melting point of 223 to 225 °C.
For the compound `COC(=O)c1c([N+](=O)[O-])cccc1[N+](=O)[O-]`, the melting point lay within 150 to 152 °C.
Compound `COCCc1nc2c(N)nc3ccccc3c2n1CCCNS(=O)(=O)c1cccc2c(N(C)C)cccc12` displayed a melting point of 210 to 215 °C.
Compound `CC1(C)C(=O)N(c2ccc(C#N)c(C(F)(F)F)c2)C(=O)N1C(=O)c1ccccc1` registered a melting point of 179 to 180 °C.
On to `Nc1c(-c2ccc(Oc3ccccc3)cc2)nc2ccc(C(F)(F)F)cc2c1C(=O)O`, for which the melting point was 220 to 225 °C.
`O=C(CCC(F)([N+](=O)[O-])[N+](=O)[O-])NNC(=O)C(F)(F)C(F)(F)C(F)(F)F` returned a melting point of 143 to 144 °C.
`CCCCc1nn(-c2cc(NC(=O)CC)ccc2Br)c(=O)n1Cc1ccc(-c2ccccc2S(=O)(=O)NC(C)(C)C)cc1F` came in with a melting point of 119 to 121 °C.
`CC(C)C(OC(=O)NC(C)(Cc1ccccc1)C(=O)NC(C)(C)c1ccccc1)c1ccccc1` (stereo not drawn) displayed a melting point of 115 to 123 °C.
